Patent US20240238425A1, “HSD17B13 Inhibitors and/or Degraders” (Pfizer Inc., priority 2022, published 2024)
Where a name gives a salt, the structure may show the parent alone.

System: HiBiT-HSD17β13 fusion protein (N-terminal HiBiT-tagged HSD17β13 isoform D) in Huh7 HiBiT-HSD17β13 OE cells
Test: Whole-cell Huh7-HSD17B13 HiBiT assay (degrader potency and maximal efficacy, luminescence readout)
Format: cell-based, human
Settings: 24 hour incubation, geometric mean, * = geometric mean for all forms tested (parent and salt forms); for DC50: read-out: Huh7_HIBIT-HSD17β13_DC50 GMean DC50; for Huh7_HIBIT-HSD17β13_DC50 GMean Asymptote Maximum: max. concentration 1 μM
Summary of the method: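 Huh7 cells stably overexpressing N-terminal HiBiT-tagged HSD17β13 isoform D, clone matched to primary hepatocyte expression, were exposed to an 11-point, 1 in 3.162 dilution series (top 1 μM final) for 24 h at 37° C. Lytic HiBiT luminescence was normalised to DMSO and parental-cell controls; DC50 from four-parameter logistic fit, with CellTiter-Glo counter screen.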

Structure (SMILES)	DC50	Huh7_HIBIT-HSD17β13_DC50 GMean Asymptote Maximum
Cn1c(=O)n(C2CCC(=O)NC2=O)c2ccc(CCCN3CCc4nc(-c5ccc6cn([C@H]7CC[C@H](CNC(=O)c8cc(F)c(O)c(F)c8F)CC7)nc6c5)sc4C3)cc21 (mixture of isomers) [Example 115, N-{[(1r,4r)-4-{6-[5-(3-{1-[(3RS)-2,6-dioxopiperidin-3-yl]-3-methyl-2-oxo-2,3-dihydro-1H-benzimidazol-5-yl}propyl)-4,5,6,7-tetrahydro[1,3]thiazolo[5,4-c]pyridin-2-yl]-2H-indazol-2-yl}cyclohexyl]methyl}-2,3,5-trifluoro-4-hydroxybenzamide, trifluoroacetate salt]	260 pM	79%
Cn1c(=O)n(C2CCC(=O)NC2=O)c2ccc(CCCN3Cc4cc(-c5ccc6cn([C@H]7CC[C@H](CNC(=O)c8cc(F)c(O)c(F)c8F)CC7)nc6c5)cnc4C3)cc21 (mixture of isomers) [Example 116, N-{[(1r,4r)-4-{6-[6-(3-{1-[(3RS)-2,6-dioxopiperidin-3-yl]-3-methyl-2-oxo-2,3-dihydro-1H-benzimidazol-5-yl}propyl)-6,7-dihydro-5H-pyrrolo[3,4-b]pyridin-3-yl]-2H-indazol-2-yl}cyclohexyl]methyl}-2,3,5-trifluoro-4-hydroxybenzamide, trifluoroacetate salt]	200 pM	88%
Cn1c(=O)n(C2CCC(=O)NC2=O)c2ccc(CCN3CCOC4(C3)CN(c3ccc5cn([C@H]6CC[C@H](CNC(=O)c7cc(F)c(O)c(F)c7F)CC6)nc5c3)C4)cc21 (mixture of isomers) [Example 117, N-{[(1r,4r)-4-{6-[8-(2-{1-[(3RS)-2,6-dioxopiperidin-3-yl]-3-methyl-2-oxo-2,3-dihydro-1H-benzimidazol-5-yl}ethyl)-5-oxa-2,8-diazaspiro[3.5]nonan-2-yl]-2H-indazol-2-yl}cyclohexyl]methyl}-2,3,5-trifluoro-4-hydroxybenzamide, trifluoroacetate salt]	950 pM	79%
Cn1c(=O)n(C2CCC(=O)NC2=O)c2ccc(CCCN3C[C@H]4CN(c5ccc6cn([C@H]7CC[C@H](CNC(=O)c8cc(F)c(O)c(F)c8F)CC7)nc6c5)C[C@@H]4C3)cc21 (mixture of isomers) [Example 118, N-{[(1r,4r)-4-{6-[(3aS,6aS)-5-(3-{1-[(3RS)-2,6-dioxopiperidin-3-yl]-3-methyl-2-oxo-2,3-dihydro-1H-benzimidazol-5-yl}propyl)hexahydropyrrolo[3,4-c]pyrrol-2(1H)-yl]-2H-indazol-2-yl}cyclohexyl]methyl}-2,3,5-trifluoro-4-hydroxybenzamide, trifluoroacetate salt]	2900 pM	78%
Cn1c(=O)n(C2CCC(=O)NC2=O)c2ccc(CCCN3Cc4cnc(-c5ccc6cn([C@H]7CC[C@H](CNC(=O)c8cc(F)c(O)c(F)c8F)CC7)nc6c5)cc4C3)cc21 (mixture of isomers) [Example 119, N-{[(1r,4r)-4-{6-[2-(3-{1-[(3RS)-2,6-dioxopiperidin-3-yl]-3-methyl-2-oxo-2,3-dihydro-1H-benzimidazol-5-yl}propyl)-2,3-dihydro-1H-pyrrolo[3,4-c]pyridin-6-yl]-2H-indazol-2-yl}cyclohexyl]methyl}-2,3,5-trifluoro-4-hydroxybenzamide, formate salt]	280 pM	75%
Cn1c(=O)n(C2CCC(=O)NC2=O)c2ccc(CCCN3CCN(c4cnc(-c5ccn6cc([C@]78CC[C@](CNC(=O)c9cc(F)c(O)c(F)c9F)(CC7)CC8)nc6c5)nc4)CC3)cc21 (mixture of isomers) [Example 120, N-{[4-(7-{5-[4-(3-{1-[(3RS)-2,6-dioxopiperidin-3-yl]-3-methyl-2-oxo-2,3-dihydro-1H-benzimidazol-5-yl}propyl)piperazin-1-yl]pyrimidin-2-yl}imidazo[1,2-a]pyridin-2-yl)bicyclo[2.2.2]octan-1-yl]methyl}-2,3,5-trifluoro-4-hydroxybenzamide, trifluoroacetate salt]	150 pM	82%
Cn1c(=O)n(C2CCC(=O)NC2=O)c2ccc(CCCN3CCN(c4nccc(-c5nc([C@]67CC[C@](CNC(=O)c8cc(F)c(O)c(F)c8F)(CC6)CC7)no5)n4)CC3)cc21 (mixture of isomers) [Example 121, formate salt]	200 pM	85%
Cc1sc([C@]23CC[C@](CNC(=O)c4cc(F)c(O)c(F)c4F)(CC2)CC3)nc1-c1ccnc(N2CCN(CCCc3ccc4c(c3)n(C)c(=O)n4C3CCC(=O)NC3=O)CC2)n1 (mixture of isomers) [Example 122, N-{[4-(4-{2-[4-(3-{1-[(3RS)-2,6-dioxopiperidin-3-yl]-3-methyl-2-oxo-2,3-dihydro-1H-benzimidazol-5-yl}propyl)piperazin-1-yl]pyrimidin-4-yl}-5-methyl-1,3-thiazol-2-yl)bicyclo[2.2.2]octan-1-yl]methyl}-2,3,5-trifluoro-4-hydroxybenzamide]	230 pM	73%
Cn1c(=O)n(C2CCC(=O)NC2=O)c2ccc(CCCN3CCN(c4nc(-c5nc([C@]67CC[C@](CNC(=O)c8cc(F)c(O)c(F)c8F)(CC6)CC7)no5)cc(N5CCOCC5)n4)CC3)cc21 (mixture of isomers) [Example 123, N-{[4-(5-{2-[4-(3-{1-[(3RS)-2,6-dioxopiperidin-3-yl]-3-methyl-2-oxo-2,3-dihydro-1H-benzimidazol-5-yl}propyl)piperazin-1-yl]-6-(morpholin-4-yl)pyrimidin-4-yl}-1,2,4-oxadiazol-3-yl)bicyclo[2.2.2]octan-1-yl]methyl}-2,3,5-trifluoro-4-hydroxybenzamide]	230 pM	79%
COc1c(C(=O)NC[C@]23CC[C@](c4noc(-c5ccnc(N6CCN(CCCc7ccc8c(c7)n(C)c(=O)n8C7CCC(=O)NC7=O)CC6)n5)n4)(CC2)CC3)cc(F)c(O)c1F (mixture of isomers) [Example 124, N-{[4-(5-{2-[4-(3-{1-[(3RS)-2,6-dioxopiperidin-3-yl]-3-methyl-2-oxo-2,3-dihydro-1H-benzimidazol-5-yl}propyl)piperazin-1-yl]pyrimidin-4-yl}-1,2,4-oxadiazol-3-yl)bicyclo[2.2.2]octan-1-yl]methyl}-3,5-difluoro-4-hydroxy-2-methoxybenzamide, trifluoroacetate salt]	270 pM	72%
Cn1c(=O)n(C2CCC(=O)NC2=O)c2ccc(CCCN3CCN(c4nc(-c5nc([C@]67CC[C@](CNC(=O)c8cc(F)c(O)c(F)c8F)(CC6)CC7)no5)cc(-n5ccnc5)n4)CC3)cc21 (mixture of isomers) [Example 125, N-{[4-(5-{2-[4-(3-{1-[(3RS)-2,6-dioxopiperidin-3-yl]-3-methyl-2-oxo-2,3-dihydro-1H-benzimidazol-5-yl}propyl)piperazin-1-yl]-6-(1H-imidazol-1-yl)pyrimidin-4-yl}-1,2,4-oxadiazol-3-yl)bicyclo[2.2.2]octan-1-yl]methyl}-2,3,5-trifluoro-4-hydroxybenzamide, formate salt]	280 pM	85%
